Laboratory results taken from patent US11358987B2, “Albicidin derivatives, their use and synthesis” (priority 2018, dated 2022).
Converted amounts (≈) assume the structure as drawn. Read-outs that look alike come from different tables or passages of the source.

Experiments:
Assay in all cases: Microdilution assay, MIC determination (CLSI M07-A9)
Assay type in all cases: cell-based
B. subtilis DSM10 = details: Bacillus subtilis; B. subtilis DSM10; 37° C., 20 h, MHBII media; read-out: MIC
Description: (§1) E. coli DSM 1116; E. coli BW25113; S. typhimurium TA100; Bacillus subtilis DSM10; M. phlei DSM750 and Micrococcus luteus DSM1790
(§2) The tests were performed using the micro dilution method.
(§3) The determination of MIC values was performed according to the ninth edition of the Approved Standard M07-A9 (CLSI. Methods for Dilution Antimicrobial Susceptibility Tests for Bacteria That Grow Aerobically; Approved Standard-Ninth Edition. CLSI document M07-A9. Wayne, Pa.: Clinical and Laboratory Standards Institute; 2012.)
(§4) The test was carried out for the six different bacterial strains 20 μL of cryo stock of each strain were inoculated in 20 mL of LB media (Lysogeny broth: 10 g/L peptone, 5 g/L yeast extract, 5 g/L NaCl) followed by incubation over night at 37° C., 200 rpm. The test inoculum was adjusted by the 0.5 McFarland Standard (OD625 from 0.08 to 0.1). Within 15 min of preparation, the adjusted inoculum suspension was diluted in MHBII media (BBL™ Mueller-Hinton Broth II, Becton, Dickinson and Company, New Jersey/USA) so that each well contained approximately 5×10^5 CFU/mL in a final volume of 100 μL. 95 μL of the inoculum were applied per well and 5 μL of the (diluted) antibiotic substance were added.
(§5) Previously the dry antibiotic compounds were dissolved in DMSO (100%) with a concentration of 2560 μg/mL and the resulting stock solutions were further diluted in DMSO (100%). 5 μL of each antibiotic dilution were applied to the microdilution tray to reach final concentrations of 64 μg/mL to 0.008 μg/mL. One row of each well plate was left as a growth control without antibiotic substances and another row of the microdilution tray was used as sterility control (only MHB II-media). The antimicrobial effect of the solvent (DMSO) was tested by adding 5 μL DMSO to several wells without antibiotics.
(§6) Purity check and cell titer control were performed according to International Standard M07-A9 on Mueller-Hinton II Agar (Mueller Hinton II Broth, 15 g/L agar-agar).
(§7) Both microdilution trays and agar plates were incubated at 37° C. for 20 h and subsequently analyzed visually.

E. coli BW25113 = details: Escherichia coli
Description: as §1, §2, §3, §4, §5, §6, §7

S. typhimurium TA100 = details: Salmonella enterica, 20 h
Description: as §1, §2, §3, §4, §5, §6, §7

E. coli DSM1116 = details: Escherichia coli
Description: as §1, §2, §3, §4, §5, §6, §7

M. luteus DSM1790 = details: Micrococcus luteus; M. luteus DSM1790; 37° C., 20 h, MHBII media; read-out: MIC
Description: as §1, §2, §3, §4, §5, §6, §7

M. phlei DSM750 = details: Mycolicibacterium phlei; M. phlei DSM750; 37° C., 20 h, MHBII media; read-out: MIC
Description: as §1, §2, §3, §4, §5, §6, §7

[1] = E. coli BW25113, 37° C., 20 h, MHBII media, read-out: MIC
[2] = S. typhimurium TA100, 37° C., MHBII media, read-out: MIC
[3] = E. coli DSM1116, 37° C., 20 h, MHBII media, read-out: MIC

Compound	MIC (B. subtilis DSM10) [µg/mL]	MIC (E. coli BW25113; [1]) [µg/mL]	MIC (S. typhimurium TA100; [2]) [µg/mL]	MIC (E. coli DSM1116; [3]) [µg/mL]	MIC (M. luteus DSM1790) [µg/mL]	MIC (M. phlei DSM750) [µg/mL]	MIC (E. coli BW25113; BW25113, 20 h) [µg/mL]	MIC (E. coli DSM1116; DSM1116, 20 h) [µg/mL]	MIC (S. typhimurium TA100; TYPHIMURIUM) [µg/mL]
COc1c(NC(=O)c2ccc(NC(=O)c3ccc(NC(=O)C(Cc4cnn[nH]4)NC(=O)c4ccc(NC(=O)c5ccc(F)cc5)cn4)cc3O)c(OC)c2O)ccc(C(=O)O)c1O (stereo not drawn) [Compound 9]	1000 (≈ 1160 µM)	125 (≈ 145 µM)	310 (≈ 359 µM)	63 (≈ 72.9 µM)	> 8000	1000 (≈ 1160 µM)			
C/C(=C\c1ccc(O)cc1)C(=O)Nc1ccc(C(=O)N[C@@H](Cc2c[nH]nn2)C(=O)Nc2ccc(C(=O)Nc3ccc(C(=O)Nc4ccc(C(=O)O)cc4)c(O)c3OC(C)C)nc2)nc1 [Compound 16]	≤ 16	≤ 16	≤ 16	31 (≈ 35.7 µM)	≤ 16	31 (≈ 35.7 µM)			
COc1c(NC(=O)c2ccc(NC(=O)c3ccc(NC(=O)C(Cc4cnn[nH]4)NC(=O)c4ccc(NC(=O)/C(C)=C/c5ccc(O)cc5)cc4)cn3)c(OC)c2O)ccc(C(=O)O)c1O (stereo not drawn) [Compound 10]	63 (≈ 71.1 µM)	≤ 16	≤ 16	≤ 16	31 (≈ 35 µM)	250 (≈ 282 µM)			
COc1c(NC(=O)c2ccc(NC(=O)c3ccc(NC(=O)C(Cc4cnn[nH]4)NC(=O)c4ccc(NC(=O)/C(C)=C/c5ccc(O)cc5)cn4)cn3)c(OC)c2O)ccc(C(=O)O)c1O (stereo not drawn) [Compound 14]	125 (≈ 141 µM)	63 (≈ 71 µM)	≤ 16	≤ 16	125 (≈ 141 µM)	4000 (≈ 4510 µM)			
COc1c(NC(=O)c2ccc(NC(=O)[C@H](Cc3c[nH]nn3)NC(=O)c3ccc(NC(=O)/C(C)=C/c4ccc(O)cc4)cc3)cc2)ccc(C(=O)Nc2ccc(C(=O)O)cn2)c1O [Compound 21]	4000 (≈ 4760 µM)		16 (≈ 19.1 µM)		4000 (≈ 4760 µM)	4000 (≈ 4760 µM)	125 (≈ 149 µM)	125 (≈ 149 µM)	
C/C(=C\c1ccc(O)cc1)C(=O)Nc1ccc(C(=O)N[C@@H](Cc2c[nH]nn2)C(=O)Nc2ccc(C(=O)Nc3ccc(C(=O)Nc4ccc(C(=O)O)cc4)c(O)c3OC(C)C)nc2)cc1 [Compound 15]	≤ 16	31 (≈ 35.7 µM)	≤ 16	31 (≈ 35.7 µM)	63 (≈ 72.6 µM)	250 (≈ 288 µM)			
COc1c(NC(=O)c2ccc(NC(=O)C(Cc3cnn[nH]3)NC(=O)c3ccc(NC(=O)/C(C)=C/c4ccc(O)cc4)cn3)cc2)ccc(C(=O)Nc2ccc(C(=O)O)c(O)c2OCCO)c1O (stereo not drawn) [Compound 8]	2000 (≈ 2180 µM)	125 (≈ 136 µM)	31 (≈ 33.8 µM)	63 (≈ 68.8 µM)	2000 (≈ 2180 µM)	2000 (≈ 2180 µM)			
CC(C)Oc1c(NC(=O)c2ccc(NC(=O)[C@H](Cc3c[nH]nn3)NC(=O)c3ccc(NC(=O)c4ccc(C#N)cc4)cn3)cn2)ccc(C(=O)Nc2ccc(C(=O)O)cc2)c1O [Compound 18]	≤ 16	≤ 16	≤ 16	31 (≈ 37 µM)	≤ 16	31 (≈ 37 µM)			
COc1c(NC(=O)c2ccc(NC(=O)[C@H](Cc3c[nH]nn3)NC(=O)c3ccc(NC(=O)/C(C)=C/c4ccc(O)cc4)cc3)cc2)ccc(C(=O)Nc2ccc(C(=O)O)nc2)c1O [Compound 20]	≥ 8000	> 8000		> 8000	≥ 8000	≥ 8000			125 (≈ 149 µM)
COc1nc(C(=O)Nc2ccc(C(=O)O)nc2OC)ccc1NC(=O)c1ccc(NC(=O)[C@H](Cc2c[nH]nn2)NC(=O)c2ccc(NC(=O)/C(C)=C/c3ccc(O)cc3)cc2)cc1 [Compound 19]	4000 (≈ 4680 µM)	1000 (≈ 1170 µM)	500 (≈ 585 µM)	500 (≈ 585 µM)	2000 (≈ 2340 µM)	8000 (≈ 9360 µM)			
COc1c(NC(=O)c2ccc(NC(=O)c3ccc(NC(=O)C(Cc4cnn[nH]4)NC(=O)c4ccc(NC(=O)/C(C)=C/c5ccc(O)cc5)cn4)cc3O)c(OC)c2O)ccc(C(=O)O)c1O (stereo not drawn) [Compound 4]	1000 (≈ 1110 µM)	31 (≈ 34.4 µM)	16 (≈ 17.7 µM)	31 (≈ 34.4 µM)	2000 (≈ 2220 µM)	2000 (≈ 2220 µM)			
